{"source": "patent US10316056B2", "about": "“Chemical compounds and use thereof for improving muscular quality” (BIOPHYTIS, priority 2014, dated 2019)", "key": {"[1]": {"system": "S6 kinase (S6K1) phosphorylation in C2C12 cells", "experiment": "Phosphorylation of the S6 kinase in C2C12 cells (ELISA pS6K T389), protein synthesis", "assay_type": "cell-based, mouse", "conditions": "test compounds and 20E reference (10 μM); C2C12, 2 h", "procedure": "After several experiments in which the C2C12 cells differentiated into myotubes were incubated in the presence of IGF-1 or 20E for 2 h 30 or 6 h, two screening tests were developed. Thus, the phosphorylation of the S6 protein kinase and the expression of the myostatin gene were studied in order to determine their modulation by a growth hormone or an ecdysone and to characterize these modulations from a statistical point of view.\nThe C2C12 myoblast cells (ATCC CRL-1772) are seeded into 6-well plates at a density of 170 000 cells per well and cultured in a DMEM medium containing glucose in a proportion of 4.5 g/l and supplemented with fetal calf serum (10%) and with antibiotics (penicillin and streptomycin). Forty-eight hours later, the myoblasts are induced to differentiate by partial serum depletion (2% instead of 10%) for 5 days. The cells are then placed in a medium which is glucose-depleted (DMEM containing 1 g/l of glucose) and serum-free in the presence of the test molecules or of the references (100 ng/ml IGF-1 or 10 μM 20E) for 2 h. At the end of the experiment, the cells are lysed in a commercial lysis buffer (Invitrogen FNN0011) supplemented with a commercial mixture of anti-proteases (Roche 05056489001). After centrifugation, the cytoplasmic fraction containing the soluble proteins is kept and the protein concentration is determined using a commercial kit (Biorad 500-0114), the principle of which is composed of assaying by the Lowry method. The assaying of the S6 kinase phosphorylation is carried out using a commercial ELISA (Enzyme Linked ImmunoSorbent Assay) kit (Cell signaling 7063). Briefly, 50 μg of protein lysate are deposited in the wells of a 96-well microplate and incubated overnight at 4° C. with the solution of antigen specific for the pS6 kinase threonine 389 antibody. The binding of the antigen to the bottom of the wells is done electrostatically. The solution of antibody to be assayed (pS6K T389) is then incubated at 37° C. in the wells for 2 hours. The antibodies bind specifically to the antigen. The wells are then washed with washing buffer in order to remove the antigen-specific primary antibodies to be assayed which are in excess. The third step consists in binding the detection antibody. The solution of detection antibodies is incubated at 37° C. in the wells for 1 hour. The wells are then washed in order to remove the excess detection antibodies. It should be noted that the detection antibodies are coupled to an enzyme which, in the presence of its substrate, converts it into a reaction product that can be detected and measured by virtue of the appearance of a coloration. […] The appearance of a blue coloration in the substrate indicates the presence of the antibody to be assayed. In order to prevent any saturation phenomenon, a stop solution (generally containing […]) is added and brings about a change in coloration, which goes from blue to yellow. The strength thereof is proportional to the amount of enzyme present and thus to the concentration of antibody sought. The strength of the signal is measured using spectrophotometry at a wavelength of 450 nm."}, "[2]": {"system": "Soleus muscle of C57BL/6 mice subjected to a high-fat diet", "experiment": "Mice subjected to a high-fat diet: weight and amount of proteins of the Soleus muscle", "assay_type": "in vivo, C57BL/6J mice", "conditions": "5 mg/kg orally, high-fat diet for 6 weeks, compared with the control group", "procedure": "(§1) The 20E as comparative compound and the compounds according to the invention (Nos. 51 and 93) were administered orally, at a dose of 5 mg/kg of body weight, to 12-week-old C57BL/6J mice subjected to a high-fat diet for 6 weeks. The effect of the compounds on the weight and the amount of proteins of the Soleus muscle and also the transcripts of genes involved in myogenesis were evaluated.\nThe amount of proteins is determined by first lysing the muscles sampled in a 0.1N NaOH solution with the FastPrep technique. The proteins are quantified by means of a colorimetric assay derived from the Lowry method.\n(§2) The in vivo study is carried out by evaluating the effect of 20E as comparative compound and of the molecules according to the invention (Nos. 51 and 93) administered orally, at a dose of 5 mg/kg of body weight, to C57BL/6 mice subjected to a high-fat diet for 6 weeks. The effect of the molecules on the weight and the amount of proteins of the Soleus muscle and also the transcripts of genes involved in myogenesis were evaluated."}, "[3]": {"conditions": "rat, in vivo, po", "protocol": "The pharmacokinetics of the compounds were evaluated orally using male Wistar rats (Charles River). […] The novel compounds according to the invention were administered at a dose of 10 mg/kg of body weight in the form of a mixture of 4 to 6 products. After administration, the blood was sampled from the tail at t=0.25 h, 0.5 h, 1 h, 3 h, 6 h and 8 h. The blood samples were centrifuged and the plasmas removed."}, "Myf5 gene transcripts": {"system": "Myf5 gene transcripts", "experiment": "Mice subjected to a high-fat diet: Myf5 transcripts", "assay_type": "in vivo, C57BL/6J mice", "conditions": "5 mg/kg orally; high-fat diet for 6 weeks", "procedure": "as §1\n(§3) Myogenesis, which is the process for forming muscle tissues, is controlled by several myogenic transcription factors which act as end effectors of the signaling cascade and produce transcripts involved in the various stages of development. The roles of the transcription factors have been described in various journals (Sabourin and Rudnicki 2000 and Le Grand and Rudnicki 2007). The Pax7 protein (Paired-box protein 7) maintains a population of satellite cells in quiescence and, with Myf5 (Myogenic factor 5), plays a role in the expansion of activated myoblasts. The MyoD protein (Myoblast Determination protein) appears to determine the differentiation potential of activated myoblasts, and cooperates with myogenin and the MEF2 (Myocyte Enhancer Factor 2) protein to control and bring about differentiation. Finally, MRF4 (Muscle-specific Regulatory Factor 4) is required for hypertrophy, even though it probably plays other roles. […]\n(§4) The relative differences in gene expression between treatments are expressed as increase or decrease in the number of cycle times [Ct] compared with the control group, the [Ct] value of each gene having been standardized with the beta-actin gene.\nas §2"}, "MyoD transcripts": {"system": "MyoD transcripts", "experiment": "Mice subjected to a high-fat diet: MyoD transcripts of the Soleus muscle", "assay_type": "in vivo, C57BL/6J mice", "conditions": "5 mg/kg orally; high-fat diet for 6 weeks; FIG. 5A", "procedure": "as §1, §3, §4, §2"}, "myostatin transcript": {"system": "myostatin transcript", "experiment": "Mice subjected to a high-fat diet: myostatin transcript of the Soleus muscle", "assay_type": "in vivo, C57BL/6J mice", "conditions": "5 mg/kg orally; high-fat diet for 6 weeks; FIG. 4", "procedure": "as §1\nIn order to carry out the gene expression analysis, the muscle tissues were homogenized in a Trizol solution (500 μl), and the RNAs were extracted and purified using the phenol/chloroform method. An amount of […] of RNA was used as template for the synthesis of the first cDNA strand using oligo (dT)s as primers and the AMV reverse transcriptase enzyme as described by the supplier (Applied Biosystems 4368814). The q-PCRs were then carried out using a 7900HT machine equipped with a rapid system for real-time detection by PCR (Applied Biosystems) and the standard qPCR program (1 cycle of 95° C. for 15 min, 40 cycles of 95° C. for 15 s and 60° C. for 1 min, a 60-95° C. melt curve for the Sybergreen probes). The experiments are carried out in a Sybergreen SYBR master mix (Applied Biosystems) containing the 100 ng cDNA samples and a set of primers which bind to the two different exons and at a final concentration of 200 nM.\nas §4, §2"}, "myogenin transcripts": {"system": "myogenin transcripts", "experiment": "Mice subjected to a high-fat diet: myogenin transcripts of the Soleus muscle", "assay_type": "in vivo, C57BL/6J mice", "conditions": "5 mg/kg orally; high-fat diet for 6 weeks; FIG. 5B", "procedure": "as §1, §3, §4, §2"}, "[4]": {"system": "muscle cells derived from the C2C12 murine line", "conditions": "literature, Kazi et al., 2010; cited from earlier work"}, "[5]": {"system": "phosphorylations that activate proteins such as Akt or S6 kinase", "conditions": "could reach; literature, Kazi et al., 2010; cited from earlier work"}}, "data": [{"molecule": "CC(C)(O)CC[C@@H](O)[C@](C)(O)[C@H]1CC[C@@]2(O)C3=CC(=O)[C@@H]4C[C@@H](O)[C@@H](O)C[C@]4(C)[C@H]3CC[C@]12C", "note": "[Compound 20E, 20-hydroxyecdysone, reference compound]", "values": [{"measurement": "S6K1 phosphorylation level", "setting": "[1]", "result": 120, "unit": "%"}, {"measurement": "weight of the Soleus muscle", "setting": "[2]; FIG. 3A", "result": "increases"}, {"measurement": "amount of proteins of the Soleus muscle", "setting": "[2]; FIG. 3B", "result": "increases"}, {"measurement": "Cexp (coefficient of exposure)", "setting": "[3]", "result": 1.0}, {"measurement": "AUC", "setting": "[3]; 50 mg/kg", "result": 382, "unit": "ng·h/mL"}, {"measurement": "Cmax", "setting": "[3]; 50 mg/kg", "result": 68, "unit": "ng/mL"}, {"measurement": "Tmax", "setting": "[3]; 50 mg/kg", "result": 30, "unit": "min"}, {"measurement": "transcripts of the Myf5 gene", "setting": "Myf5 gene transcripts", "result": "increase"}, {"measurement": "transcripts of the MyoD gene", "setting": "MyoD transcripts", "result": "increase"}, {"measurement": "myostatin expression in the Soleus muscle", "setting": "myostatin transcript", "result": "comparably inhibit"}, {"measurement": "transcript of the myogenin gene", "setting": "myogenin transcripts", "result": "increase"}]}, {"molecule": "IGF-1: reference product (100 ng/ml) that stimulates protein synthesis", "values": [{"measurement": "increase in protein synthesis", "setting": "[4]", "result": 20, "unit": "%"}, {"measurement": "stimulation of targets of the signaling pathway", "setting": "[5]", "result": "about 200%"}]}]}
